In data set [1] the test system is HT-29 colorectal carcinoma xenografts. The experiment in a line: Efficacy study in subcutaneous HT29 xenograft. The following applies: for Deaths TR (treatment related) / Regressions CR (complete regression) / Regressions PR (partial regression) / Regressions TFS (tumor-free survivor): n=10; for Median TTE (time to endpoint): endpoint 1000 mm^3 or Day 90.
Method: Efficacy was evaluated in nude mice bearing subcutaneously implanted HT-29 colorectal carcinoma xenografts. HRLN female nu/nu mice were set up with 1 mm^3 HT-29 tumor fragments s.c. in the flank. The pair match was then done when the tumors reached an average size of 80 to 120 mg and was followed by beginning treatment. Dosing solutions were prepared daily and body weight was determined bi-weekly until the end of the study. Caliper measurements were taken bi-weekly to the end of the study. Animals were monitored individually, and the endpoint of the experiment was a tumor volume of 1 g or 90 days, whichever came first. […] When the endpoint was reached, the animals were euthanized.
Tubulysin A was administered as a solution in 10% DMSO:1% Tween 80:89% Saline. The vehicle was 10% DMSO:1% Tween 80:89% Saline.
Data set [2] deals with human ovarian carcinoma cell line A2780. The data set is described as follows: Cytotoxicity of etoposide derivatives, MTS assay. The data set is classed as cell-based. The following applies: A2780, 72 h. The method, then:
The cytotoxicity of drug-polymer conjugates and linker-drug precursors was determined in the human ovarian carcinoma cell line A2780. […] 10,000 cells per well were seeded in a 96-well plate and incubated at 37° C. for 24 hours, at which time drug was added to triplicate wells at various concentrations. After 72 hours of incubation at 37° C. in the presence of drug, cells were washed with PBS, incubated for 1 hour with an MTS solution, and analyzed according to manufacturer's instructions (CellTiter 96 one solution cell proliferation assay, Promega, Madison, Wis.).

The conditions of data set [3]: neutral pH.
The conditions of data set [4]: for Day of mean BW Nadir / # of TR (treatment related deaths) / Avg. Day of TR: qwkx3 iv.
Method: HRLN female nu/nu mice were set up and dosing solutions were prepared. Body weight was determined biweekly until the end of the study. The endpoint was where mean weight loss exceeded 20% or >10% of animals in a group died, dosing was immediately stopped. Moribund animals were euthanized following PRC SOP. All animals were euthanized 14 days post final dose.
The subject of a further data set is HT-29 (colon) cells. The data set is described as follows: Antiproliferative activity in vitro. The data set is classed as cell-based, human.

Structures are written as SMILES. Converted amounts (≈) assume the structure as drawn. Read-outs that look alike come from different tables or passages of the source.

In general, IC50 refers to the concentration at which inhibition is half-maximal. The low end stands for greater potency, the high end for weaker potency. As usually defined, the mortality is the share of the test organisms that died. Lower therefore signals more survivors.

For `CC[C@]1(O)C[C@@H]2CN(CCc3c([nH]c4ccccc34)[C@@](C(=O)OC)(c3cc4c(cc3OC)N(C)[C@H]3[C@@](O)(C(=O)OC)[C@H](OC(C)=O)[C@]5(CC)C=CCN6CC[C@]43[C@@H]65)C2)C1` [Vinblastine], in data set [1] (4 mg/kg qwkx3 i.v.), the “antitumor effectiveness compared to CDP-PEG-SS-Tubulysin” value is given as “significantly less effective”. In data set [1] (4 mg/kg qwkx3 i.v. (Group 3)), the “% TGD” value was determined as 33.89%, the “BW Nadir (%)” value is reported as −3.60%, the “Statistical Significance vs G1 (vehicle)” value is recorded as “** (** = 0.001< P < 0.01)” and the “Statistical Significance vs G4 (CDP-S-S-TUB qwkx3)” value was “*** (*** = P < 0.001)”. In data set [1] (4 mg/kg qwkx3 i.v. (Group 3)), the “TC (tumor growth delay, T−C)” value worked out at 11.4 days; the “Deaths TR (treatment related)” value was 0; the “Regressions CR (complete regression)” value was 0; the “Regressions PR (partial regression)” value was 0. Also, in data set [1] (4 mg/kg qwkx3 i.v. (Group 3)), the “Regressions TFS (tumor-free survivor)” value is on record as 0 and the “Median TTE (time to endpoint)” value was found to be 45.05.
The molecule `COc1cc([C@@H]2c3cc4c(cc3[C@@H](O[C@@H]3O[C@@H]5CO[C@@H](C)O[C@H]5[C@H](O)[C@H]3O)[C@H]3COC(=O)[C@H]23)OCO4)cc(OC)c1O` [etoposide] returned an IC50 in data set [2] of 200 nM.
Molecule `CC[C@H](C)[C@H](NC(=O)[C@H]1CCCCN1C)C(=O)N(COC(=O)CC(C)C)[C@H](C[C@@H](OC(C)=O)c1nc(C(=O)N[C@@H](Cc2ccc(O)cc2)C[C@H](C)C(=O)O)cs1)C(C)C` [Tubulysin A, tubulysin A] had an IC50 in the data set on NCI-H1299 (lung) cells of 2.8 nM. The molecule further registered a solubility in water in data set [3] of 100 µg/mL (≈ 118 µM). Further, in data set [1] (0.1 mg/kg qwkx3 i.v. (Group 2)), the “% TGD” value was 2.42%; the “BW Nadir (%)” value is given as −26.80%; the “TC (tumor growth delay, T−C)” value is 0.81 days; the “Deaths TR (treatment related)” value is reported as 5. Further, in data set [1] (0.1 mg/kg qwkx3 i.v. (Group 2)), the “Regressions CR (complete regression)” value is recorded as 0, the “Regressions PR (partial regression)” value was determined as 0, the “Regressions TFS (tumor-free survivor)” value is recorded as 0 and the “Median TTE (time to endpoint)” value was found to be 34.46. Further, the mortality in data set [1] (0.1 mg/kg qwkx3 i.v., HT-29 xenograft mice) is listed as 50%. For the same molecule, the “maximum body weight loss” value in data set [1] (0.1 mg/kg qwkx3 i.v., on day 26) is given as 26.8%. Also, the “toxicity of the free drug” value in data set [1] (even at 0.1 mg/kg) is “severely toxic”. For the same molecule, the “Day of mean BW Nadir” value in data set [4] (0.05 mg/kg) is 5 days. For the same molecule, the “# of TR (treatment related deaths)” value in data set [4] (0.05 mg/kg, n=5) turned out to be 0. Moreover, in data set [4] (0.3 mg/kg), the “Avg. Day of TR” value is given as 9 and the “Day of mean BW Nadir” value came out at 8 days. Besides, the “# of TR (treatment related deaths)” value in data set [4] (0.3 mg/kg, n=4) amounted to 4. Moreover, in data set [4] (1 mg/kg), the “Avg. Day of TR” value came out at 4 and the “Day of mean BW Nadir” value came out at 3 days. In addition, the “# of TR (treatment related deaths)” value in data set [4] (1 mg/kg, n=4) was 4. For the same molecule, in data set [4] (3 mg/kg), the “Avg. Day of TR” value was 3 and the “Day of mean BW Nadir” value is 2 days. The “# of TR (treatment related deaths)” value in data set [4] (3 mg/kg, n=4) worked out at 4. In addition, the “maximum tolerated dose (MTD)” value in data set [4] (nude mice, conjugate in Tubulysin equivalents) is given as 0.05 mg/kg. Also, in the data set on HT-29 (colon) cells, the IC50 was determined as 1.3 nM. Moreover, it took 2.4 nM to reach half-maximal inhibition in the data set on A2780 (ovarian) cells (IC50).

For the origin of these results see patent US8497365B2, “Cyclodextrin-based polymers for therapeutics delivery” (priority 2007, dated 2013).
